Experimental findings from ChEMBL document CHEMBL5608177, “Antitumor activity and transcriptome sequencing (RNA-seq) analyses of hepatocellular carcinoma cells in response to exposure triterpene-nucleoside conjugates” (Eur J Med Chem, 2024) are described below.

The test system of data set [1] is HeLa. Nature of the data set: Antiproliferative activity against human HeLa cells assessed as inhibition of cell growth incubated for 48 hrs by CCK-8 reagent based spectrophotometric analysis. The format is functional.
The test system of data set [2] is MCF7. Nature of the data set: Antiproliferative activity against human MCF7 cells assessed as inhibition of cell growth incubated for 48 hrs by CCK-8 reagent based spectrophotometric analysis. The format is functional. As to conditions: MCF7, 48 h.
In data set [3] the test system is SW-620. Kind of data set: Antiproliferative activity against human SW620 cells assessed as inhibition of cell growth incubated for 48 hrs by CCK-8 reagent based spectrophotometric analysis. The format is functional. As to conditions: SW-620, 48 h.
Data set [4] deals with SMMC-7721. Nature of the data set: Antiproliferative activity against human SMMC-7721 cells assessed as inhibition of cell growth incubated for 48 hrs by CCK-8 reagent based spectrophotometric analysis. The conditions noted are these: SMMC-7721, 48 h. The format is functional.
The subject of data set [5] is A549. Kind of data set: Antiproliferative activity against human A549 cells assessed as inhibition of cell growth incubated for 48 hrs by CCK-8 reagent based spectrophotometric analysis. The conditions noted are these: A549, 48 h. The format is functional.
Data set [6] has as its system PC-3. Kind of data set: Antiproliferative activity against human PC-3 cells assessed as inhibition of cell growth incubated for 48 hrs by CCK-8 reagent based spectrophotometric analysis. The data set is classed as functional. The conditions noted are these: PC-3, 48 h.
Data set [7] has as its system KYSE-150 cell line. Nature of the data set: Antiproliferative activity against human KYSE-150 cell line assessed as inhibition of cell growth incubated for 48 hrs by CCK-8 reagent based spectrophotometric analysis. The data set is classed as functional. As to conditions: KYSE-150, 48 h.
Data set [8] concerns HepG2. Kind of data set: Antiproliferative activity against human HepG2 cells assessed as inhibition of cell growth incubated for 48 hrs by CCK-8 reagent based spectrophotometric analysis. The format is functional. As to conditions: HepG2, 48 h.
Data set [9] deals with SMMC-7721. Nature of the data set: Antitumor activity against human SMMC-7721 cells xenografted in BALB/c mouse assessed as inhibition of tumor growth at 25 mg/kg,ip administrated 3 times weekly for 3 weeks relative to control. The format is functional. Set-up: scale not given: the % may be the effect or the level left.
The subject of data set [10] is SMMC-7721. Nature of the data set: Antitumor activity against human SMMC-7721 cells xenografted in BALB/c mouse assessed as reduction in tumor weight at 25 mg/kg,ip administrated 3 times weekly for 3 weeks (reference value: 0.573 +/- 0.137 g). The format is functional.
For data set [11], the system named is SMMC-7721. Nature of the data set: Antitumor activity against human SMMC-7721 cells xenografted in BALB/c mouse assessed as reduction in tumor weight at 25 mg/kg,ip administrated 3 times weekly for 3 weeks. The data set is classed as functional, organism-based.
Data set [12] relates to SMMC-7721. Kind of data set: Antitumor activity against human SMMC-7721 cells xenografted in BALB/c mouse assessed as reduction in tumor growth at 25 mg/kg,ip administrated 3 times weekly for 3 weeks. The data set is classed as functional, organism-based.
The nature of data set [13]: Aqueous solubility of the compound in […] by HPLC analysis. The data set is classed as physicochemical.

Structures are written as SMILES. Activity calls are given as the source filed them. No cut-off for these calls is given here. A value given as a limit tells only on which side of the number the result lay.

For `C=C(C)[C@@H]1CC[C@]2(C(=O)OC)CC[C@]3(C)[C@H](CC[C@@H]4[C@@]5(C)C[C@@H](Cc6cn([C@]7(CO)O[C@@H](n8ccc(N)nc8=O)[C@@H](F)[C@@H]7O)nn6)C(=O)C(C)(C)[C@@H]5CC[C@]43C)[C@@H]12`, the IC50 in [1] is 28.2 µM; in data set [2] it was 61.4 µM; in data set [3] it was 31.2 µM; in data set [4], 52.7 µM; in [5], > 100 µM; in [6], > 100 µM. For the same molecule, the IC50 in data set [7] is 19.2 µM; in [8], 69.9 µM.
For the molecule `C=C(C)[C@@H]1CC[C@]2(C(=O)O)CC[C@]3(C)[C@H](CC[C@@H]4[C@@]5(C)C[C@@H](Cc6cn([C@H]7C[C@H](n8cc(C)c(O)nc8=O)O[C@@H]7CO)nn6)[C@H](O)C(C)(C)[C@@H]5CC[C@]43C)[C@@H]12`, the IC50 in data set [1] stood at 16.4 µM; in data set [2], 7.01 µM; in [3], 17.5 µM; in data set [4] it was 15 µM; in data set [5], 64.4 µM; in data set [6] it was 26.6 µM. Moreover, the IC50 in [7] came out at 7.53 µM; in data set [8], 38.4 µM.
As to `CC(=O)O[C@H]1C(=O)[C@@]2(C)[C@H]([C@H](OC(=O)c3ccccc3)[C@]3(O)C[C@H](OC(=O)[C@H](O)[C@@H](NC(=O)c4ccccc4)c4ccccc4)C(C)=C1C3(C)C)[C@]1(OC(C)=O)CO[C@@H]1C[C@@H]2O` [PACLITAXEL], the figures for the Activity in data set [9] and in [10] were 61.6% and 0.22 g, respectively. Besides, the result in data set [11] and in data set [12] was inactive.
Regarding `Cc1cn([C@H]2C[C@H](N=[N+]=[N-])[C@@H](CO)O2)c(=O)[nH]c1=O` [ZIDOVUDINE], the IC50 in data set [1] is > 100 µM; in data set [2] it was > 100 µM; in data set [3] it was > 100 µM; in data set [4], > 100 µM; in data set [5] it was 20.7 µM; in [6], > 100 µM. Moreover, the IC50 in data set [7] and in [8] was > 100 µM in each case.
Regarding `C=C(C)[C@@H]1CC[C@]2(C(=O)OC)CC[C@]3(C)[C@H](CC[C@@H]4[C@@]5(C)C[C@@H](Cc6cn([C@]7(CO)O[C@@H](n8ccc(N)nc8=O)[C@H](O)[C@@H]7O)nn6)C(=O)C(C)(C)[C@@H]5CC[C@]43C)[C@@H]12`, the IC50 in data set [1] was 40.4 µM; in data set [2] it was > 100 µM; in [3] it was 35.8 µM; in [4] it was 68.5 µM; in [5], > 100 µM; in [6], > 100 µM. The IC50 was 68.7 µM in [7] and > 100 µM in data set [8].
`C=C(C)[C@@H]1CC[C@]2(C(=O)OC)CC[C@]3(C)[C@H](CC[C@@H]4[C@@]5(C)C[C@@H](Cc6cn([C@]7(CO)O[C@@H](n8ccc(O)nc8=O)[C@@H](F)[C@@H]7O)nn6)[C@H](O)C(C)(C)[C@@H]5CC[C@]43C)[C@@H]12`: the IC50 in data set [1] was found to be 15.1 µM; in data set [2], 23.3 µM; in data set [3], 15.2 µM; in [4] it was 24.5 µM; in data set [5], 36.4 µM; in data set [6], 23.5 µM. The figures for the IC50 in data set [7] and in [8] were 10.7 µM and 37.5 µM, respectively.
Regarding `C=C(C)[C@@H]1CC[C@]2(C(=O)O)CC[C@]3(C)[C@H](CC[C@@H]4[C@@]5(C)C[C@@H](Cc6cn([C@]7(CO)O[C@@H](n8ccc(N)nc8=O)[C@@H](F)[C@@H]7O)nn6)[C@H](O)C(C)(C)[C@@H]5CC[C@]43C)[C@@H]12`, the IC50 in data set [1], in data set [2], in data set [3], in data set [4], in data set [5] and in [6] was > 100 µM each time. Besides, the IC50 in data set [7] and in data set [8] was > 100 µM in each case.
Regarding `C=C(C)[C@@H]1CC[C@]2(C(=O)O)CC[C@]3(C)[C@H](CC[C@@H]4[C@@]5(C)C[C@@H](Cc6cn([C@]7(CO)O[C@@H](n8ccc(O)nc8=O)[C@H](O)[C@@H]7O)nn6)[C@H](O)C(C)(C)[C@@H]5CC[C@]43C)[C@@H]12`, the IC50 in data set [1], in [2], in data set [3], in data set [4], in data set [5] and in [6] was > 100 µM in each case. Further, the IC50 in data set [7] and in [8] was > 100 µM each time.
`C=C(C)[C@@H]1CC[C@]2(C(=O)OC)CC[C@]3(C)[C@H](CC[C@@H]4[C@@]5(C)C[C@@H](Cc6cn([C@]7(CO)O[C@@H](n8ccc(N)nc8=O)[C@H](O)[C@@H]7O)nn6)[C@H](O)C(C)(C)[C@@H]5CC[C@]43C)[C@@H]12`: the IC50 in data set [1] is 46.2 µM; in data set [2], 87.6 µM; in data set [3] it was 48.9 µM; in data set [4] it was 67.3 µM; in data set [5], > 100 µM; in data set [6] it was > 100 µM. Besides, the IC50 was determined as 20.7 µM in data set [7] and 85.7 µM in data set [8].
Regarding `C=C(C)[C@@H]1CC[C@]2(C(=O)OC)CC[C@]3(C)[C@H](CC[C@@H]4[C@@]5(C)C[C@@H](Cc6cn([C@]7(CO)O[C@@H](n8ccc(O)nc8=O)[C@H](O)[C@@H]7O)nn6)[C@H](O)C(C)(C)[C@@H]5CC[C@]43C)[C@@H]12`, the IC50 in [1] is 20 µM; in data set [2], 26.6 µM; in data set [3], 25.9 µM; in data set [4], 37.3 µM; in data set [5], 53.2 µM; in [6] it was 41 µM. For the same molecule, the values for the IC50 in [7] and in [8] were 20.3 µM and 44.6 µM, respectively.
For the molecule `C=C(C)[C@@H]1CC[C@]2(C(=O)OC)CC[C@]3(C)[C@H](CC[C@@H]4[C@@]5(C)C[C@@H](Cc6cn([C@H]7C[C@H](n8cc(C)c(O)nc8=O)O[C@@H]7CO)nn6)[C@H](O)C(C)(C)[C@@H]5CC[C@]43C)[C@@H]12`, the half-inhibitory concentration (IC50) in data set [1] was determined as 20.6 µM; in data set [2], 39.4 µM; in data set [3] it was 8.75 µM; in data set [4], 32.7 µM; in data set [5], 41.2 µM; in data set [6], 18.1 µM. The values for the IC50 in data set [7] and in data set [8] were 7.82 µM and 19.5 µM, respectively.
For the molecule `C=C(C)[C@@H]1CC[C@]2(C(=O)O)CC[C@]3(C)[C@H](CC[C@@H]4[C@@]5(C)C[C@@H](Cc6cn([C@]7(CO)O[C@@H](n8ccc(N)nc8=O)[C@H](O)[C@@H]7O)nn6)[C@H](O)C(C)(C)[C@@H]5CC[C@]43C)[C@@H]12`, the IC50 in [1] was 15.3 µM; in data set [2], 62 µM; in [3] it was 28.1 µM; in data set [4], 17 µM; in [5], > 100 µM; in data set [6], 86.2 µM. Moreover, the IC50 in data set [7] was 42.4 µM; in [8] it was 72.7 µM.
With `C=C(C)[C@@H]1CC[C@]2(C(=O)O)CC[C@]3(C)[C@H](CC[C@@H]4[C@@]5(C)CC[C@H](O)C(C)(C)[C@@H]5CC[C@]43C)[C@@H]12` [BETULINIC ACID], the IC50 in data set [1] was 31.3 µM; in [2], 54.8 µM; in data set [3], 54.3 µM; in [4], 43.6 µM; in [5] it was 69.8 µM; in data set [6], > 100 µM. Further, the IC50 in [7] is 23.9 µM; in [8] it was 40 µM. The solubility in [13] was < 0.11 µM.
As to `C=C(C)[C@@H]1CC[C@]2(C(=O)OC)CC[C@]3(C)[C@H](CC[C@@H]4[C@@]5(C)C[C@@H](Cc6cn([C@]7(CO)O[C@@H](n8ccc(N)nc8=O)[C@@H](F)[C@@H]7O)nn6)[C@H](O)C(C)(C)[C@@H]5CC[C@]43C)[C@@H]12`, the IC50 in data set [1] is 24.1 µM; in data set [2], 70.2 µM; in data set [3], 18 µM; in data set [4] it was 70.2 µM; in data set [5] it was > 100 µM; in data set [6], > 100 µM. Moreover, the values for the IC50 in data set [7] and in [8] were 29.3 µM and 55.8 µM, respectively.
Turning to `C=C(C)[C@@H]1CC[C@]2(C(=O)O)CC[C@]3(C)[C@H](CC[C@@H]4[C@@]5(C)C[C@@H](Cc6cn([C@]7(CO)O[C@@H](n8ccc(O)nc8=O)[C@@H](F)[C@@H]7O)nn6)[C@H](O)C(C)(C)[C@@H]5CC[C@]43C)[C@@H]12`, the IC50 in [1], in data set [2], in data set [3], in data set [4], in [5] and in data set [6] was > 100 µM throughout. Further, the IC50 in data set [7] and in [8] was > 100 µM each time.
As to `C=C(C)[C@@H]1CC[C@]2(C(=O)OC)CC[C@]3(C)[C@H](CC[C@@H]4[C@@]5(C)C[C@@H](Cc6cn([C@]7(CO)O[C@@H](n8ccc(O)nc8=O)[C@H](O)[C@@H]7O)nn6)C(=O)C(C)(C)[C@@H]5CC[C@]43C)[C@@H]12`, the IC50 was 27.9 µM in data set [1]; 55.3 µM in data set [2]; 19.1 µM in data set [3]; 40.5 µM in data set [4]; 70.8 µM in data set [5]; 45.5 µM in [6]. Also, the IC50 in [7] came out at 36.4 µM; in [8] it was 62.9 µM.
